The source of these data is article PMC3545278 (Journal of pharmaceutical and biomedical analysis, 2012).

Data set [1] can be described thus: Ultrafiltration. The class given is in vitro ADME, mouse. The following applies: for % Recovery from plasma / recovery at 20 min, 10 μM / %PPB (UF): mouse plasma; for % Recovery from plasma / %PPB (UF): 10 μM, mean ± SEM, n=3; for % Recovery from plasma: UF mass balance; for recovery at 20 min, 10 μM / fraction unbound at 20 min, 10 μM: mouse; for fraction unbound at 20 min, 10 μM: plasma; for %PPB (UF): mass balance.

Data set [2] is described as follows: Rapid equilibrium dialysis. The settings on record: human, plasma, pH 7.4. Type of data set: in vitro ADME.
Data set [3] is described as follows: Rapid equilibrium dialysis. The following applies: for fraction unbound at 4 h, 10 μM: mouse, plasma, pH 7.4. The class given is in vitro ADME, mouse. Background: Equilibrium dialysis compares concentrations on both sides of a semipermeable membrane.
Data set [4] can be described thus: Plasma stability, 37°C for 20 min, human plasma. Type of data set: in vitro ADME. The settings on record: 5% CO2, 20 min, mean ± SEM.
The nature of data set [5]: Ultrafiltration. The following applies: human; for recovery at 20 min, 10 μM: human plasma; for fraction unbound at 20 min, 10 μM: plasma.
For data set [6] the following is noted: human, cited from earlier work.
Data set [7] can be described thus: Plasma stability as stated in text, species not specified. The class given is in vitro ADME. The following applies: 20 minute incubation at 37°C.
For data set [8] the following is noted: longer than 20 min; cited from earlier work.
The nature of data set [9]: in vitro. The settings on record: human.

By fraction unbound is commonly meant the share of the substance not bound to proteins or other matrix. Low readings indicate little free substance, high ones much free substance.

Counter-ions that a name gives are not always drawn. Like-named read-outs stand apart in the source and are kept apart here. Bounds are passed on as bounds.

Regarding `OC(CNc1ccccc1)Cn1c2ccc(Br)cc2c2cc(Br)ccc21` (stereo not drawn) [P7C3], the “% Recovery from plasma” value in data set [1] was found to be 100.0±9.4%.
With `CC[C@]1(O)C[C@@H]2CN(CCc3c([nH]c4ccccc34)[C@@](C(=O)OC)(c3cc4c(cc3OC)N(C)[C@H]3[C@@](O)(C(=O)OC)[C@H](OC(C)=O)[C@]5(CC)C=CCN6CC[C@]43[C@@H]65)C2)C1` [Vinblastine], the figures for the recovery at 20 min, 10 μM in [1] and in [5] were 87.5 ± 2.5% and 79.1 ± 2.1%, respectively. Further, the fraction unbound at 20 min, 10 μM in data set [1] was 0.174. The values for the fraction unbound at 4 h, 10 μM in data set [2] and in data set [3] were 0.113 and 0.073, respectively. Besides, the “%Stability” value in [4] is listed as 97.5±3.1%.
Turning to `CC(C)NCC(O)COc1cccc2ccccc12` (stereo not drawn) [Propranolol HCl], the recovery at 20 min, 10 μM was determined as 104 ± 7.6% in [1] and 100 ± 1.6% in data set [5]. Also, the fraction unbound at 20 min, 10 μM in data set [1] was 0.326; in [5], 0.328. Moreover, the fraction unbound at 4 h, 10 μM was 0.166 in [2] and 0.264 in data set [3]. Besides, the “%Stability” value in data set [4] turned out to be 98.7±1.2%. Moreover, in data set [6] (ref 8), the “%PPB (Literature)” value is 65–70 [8] %.
Regarding `O=C(CCCCCCC(=O)Nc1ccccc1)NO` [Vorinostat], the figures for the recovery at 20 min, 10 μM in [1] and in [5] were 98.7 ± 0.6% and 100 ± 2.1%, respectively. In addition, the fraction unbound at 20 min, 10 μM is 0.622 in [1] and 0.396 in data set [5]. Also, the figures for the fraction unbound at 4 h, 10 μM in data set [2] and in data set [3] were 0.241 and 0.536, respectively. Further, the “%Stability” value in data set [4] is recorded as 101.1±1.9%.
For the molecule `Cc1ccnc(NS(=O)(=O)c2ccc(N)cc2)n1` [Sulfamerazine], in [1], the recovery at 20 min, 10 μM turned out to be 107 ± 1.8% and the fraction unbound at 20 min, 10 μM was 0.184. The molecule also showed a fraction unbound at 4 h, 10 μM in [3] of 0.195.
With `CC[C@H](C)C(=O)O[C@H]1C[C@@H](C)C=C2C=C[C@H](C)[C@H](CC[C@@H]3C[C@@H](O)CC(=O)O3)[C@H]21` [Lovastatin], the recovery at 20 min, 10 μM in data set [1] was 82.1 ± 8.8%; in [5], 87.6 ± 3.6%. The fraction unbound at 20 min, 10 μM in data set [1] is 0.029; in data set [5] it was 0.026. Also, the fraction unbound at 4 h, 10 μM was 0.004 in data set [2] and 0.084 in data set [3]. For the same molecule, the “%Stability” value in data set [4] worked out at 96.2±5.1%. Moreover, the “%PPB (Literature)” value in data set [6] (ref 21) is >95 [21] %.
For the molecule `CC(C)(C)NCC(O)c1cc(O)cc(O)c1` (stereo not drawn) [Terbutaline], the recovery at 20 min, 10 μM in data set [1] turned out to be 99.6 ± 8.4%; in data set [5], 104 ± 2.1%. In addition, the figures for the fraction unbound at 20 min, 10 μM in data set [1] and in [5] were 0.81 and 0.819, respectively. Moreover, the fraction unbound at 4 h, 10 μM was 0.627 in [2] and 0.638 in data set [3]. In addition, the “%Stability” value in data set [4] amounted to 106.5±3.3%. Moreover, the “%PPB (Literature)” value in data set [6] (ref 21) is given as 20%; in data set [6] (ref 23), 25%.
As to `CS(=O)(=O)c1ccc(C(=O)Nc2ccc(Cl)c(-c3ccccn3)c2)c(Cl)c1` [Vismodegib], in [1], the recovery at 20 min, 10 μM came to 94.3 ± 3.7% and the fraction unbound at 20 min, 10 μM was 0.025. This molecule also had a fraction unbound at 4 h, 10 μM in data set [3] of 0.009.
Regarding `C[C@]12CCC(=O)C=C1CC[C@@H]1[C@@H]2[C@@H](O)C[C@@]2(C)[C@H]1CC[C@]2(O)C(=O)CO` [Hydrocortisone], the values for the recovery at 20 min, 10 μM in data set [1] and in data set [5] were 102 ± 4% and 104 ± 3.3%, respectively. The fraction unbound at 20 min, 10 μM is 0.519 in data set [1] and 0.368 in data set [5]. Besides, the fraction unbound at 4 h, 10 μM is 0.279 in data set [2] and 0.412 in [3]. Besides, the “%Stability” value in data set [4] is 98.5±1.1%. The “%PPB (Literature)” value is 65% in data set [6] (ref 8) and 80% in data set [6] (ref 23).
`O=C(Nc1cccc2cccnc12)c1ccc(N2C(=O)[C@@H]3[C@H](C2=O)[C@@H]2C=C[C@H]3C2)cc1` [IWR1]: in data set [1], the “% Recovery from plasma” value is 81.1±2.1% and the “%PPB (UF)” value was 95.5±0.9%. In addition, in data set [7], the stability in plasma result is “stable”. The “stability in plasma over longer periods of time” value in data set [8] was “known instability”.
Regarding `COc1cc(NS(=O)(=O)c2ccc(N)cc2)nc(OC)n1` [Sulfadimethoxine], in [1], the recovery at 20 min, 10 μM came out at 109 ± 1.1% and the fraction unbound at 20 min, 10 μM was 0.04. Besides, the fraction unbound at 4 h, 10 μM in [3] was 0.044.
Regarding `CCCCNC(=O)NS(=O)(=O)c1ccc(C)cc1` [Tolbutamide], the recovery at 20 min, 10 μM in data set [1] is 106 ± 3.1%; in [5], 97.4 ± 0.2%. For the same molecule, in [4], the “%Stability” value is listed as 102.2±0.8%.
Turning to `CC(=O)O[C@H]1C(=O)[C@@]2(C)[C@H]([C@H](OC(=O)c3ccccc3)[C@]3(O)C[C@H](OC(=O)[C@H](O)[C@@H](NC(=O)c4ccccc4)c4ccccc4)C(C)=C1C3(C)C)[C@]1(OC(C)=O)CO[C@@H]1C[C@@H]2O` [Paclitaxel], the figures for the recovery at 20 min, 10 μM in [1] and in data set [5] were 90.8 ± 3.2% and 87.6 ± 2.2%, respectively. The fraction unbound at 20 min, 10 μM in data set [1] is 0.046; in [5], 0.132. Moreover, the fraction unbound at 4 h, 10 μM in data set [2] was 0.03; in [3], 0.024. The “%Stability” value in data set [4] worked out at 104.8±2.0%. In addition, in data set [6] (ref 23), the “%PPB (Literature)” value is 88 [23] %.
`CC(=O)CC(c1ccccc1)c1c(O)c2ccccc2oc1=O` (stereo not drawn) [Warfarin]: the recovery at 20 min, 10 μM turned out to be 99.8 ± 3.9% in data set [1] and 94.2 ± 3.8% in [9]. Also, the “%Stability” value in data set [4] amounted to 100.4±4.5%.
In data set [1], `Nc1ccc(S(=O)(=O)Nc2nccs2)cc1` [Sulfathiazole] had a recovery at 20 min, 10 μM of 108 ± 2.1% and a fraction unbound at 20 min, 10 μM of 0.402. Besides, in [3], the fraction unbound at 4 h, 10 μM is 0.418.
For the molecule `Cc1nnc(NS(=O)(=O)c2ccc(N)cc2)s1` [Sulfamethiazole], the figures for the recovery at 20 min, 10 μM in data set [1] and in data set [5] were 104 ± 1.2% and 99.4 ± 1.7%, respectively. The fraction unbound at 20 min, 10 μM in [1] was 0.348; in data set [5], 0.184. The fraction unbound at 4 h, 10 μM in data set [2] is 0.108; in [3] it was 0.353. Also, in data set [4], the “%Stability” value was determined as 101.9±0.4%. The “%PPB (Literature)” value in data set [6] (ref 22) is 85–90 [22] %.
Turning to `CC(=O)Nc1ccc(O)cc1` [Acetaminophen], the recovery at 20 min, 10 μM is 97.2 ± 2.5% in data set [1] and 102.6 ± 0.9% in data set [5]. Moreover, the fraction unbound at 20 min, 10 μM in [1] is 0.701; in data set [5], 0.733. For the same molecule, the results for the fraction unbound at 4 h, 10 μM in data set [2] and in data set [3] were 0.79 and 0.611, respectively. For the same molecule, the “%Stability” value in [4] is given as 98.6±2.6%. The “%PPB (Literature)” value in data set [6] (ref 20) was 24±7 [20] %.
Regarding `Nc1ccc(S(=O)(=O)Nc2ncccn2)cc1` [Sulfadiazine], in data set [1], the recovery at 20 min, 10 μM is 108 ± 2% and the fraction unbound at 20 min, 10 μM was 0.403. For the same molecule, the fraction unbound at 4 h, 10 μM in [3] is 0.47.
As to `O=S(=O)(Nc1ccccc1)c1ccc(NC(=S)Nc2ccccc2)cc1` [LED209E], in data set [1], the “% Recovery from plasma” value came out at 101.0±1.5% and the “%PPB (UF)” value was found to be 99.3±0.1%. Moreover, the “%PPB (RED)” value in data set [3] (mouse plasma, 10 μM, 4 hours at 37°C, mean ± SEM, n=3) was 99.2±0.1%.
For `COc1ccc2c(c1)c(CC(=O)O)c(C)n2C(=O)c1ccc(Cl)cc1` [Indomethacin], the recovery at 20 min, 10 μM was 99 ± 9.7% in data set [1] and 89.7 ± 7.2% in [5]. The results for the fraction unbound at 20 min, 10 μM in [1] and in data set [5] were 0.011 and 0.004, respectively. Also, the fraction unbound at 4 h, 10 μM in data set [2] was 0.002; in [3], 0.013. Further, in [4], the “%Stability” value worked out at 111.0±8.8%. The “%PPB (Literature)” value in [6] (ref 23) was 99 [23] %.
